Target: T1, AHR (UniProt P35869)
T1 construct: IC50
T1 sequence (P35869 1-848): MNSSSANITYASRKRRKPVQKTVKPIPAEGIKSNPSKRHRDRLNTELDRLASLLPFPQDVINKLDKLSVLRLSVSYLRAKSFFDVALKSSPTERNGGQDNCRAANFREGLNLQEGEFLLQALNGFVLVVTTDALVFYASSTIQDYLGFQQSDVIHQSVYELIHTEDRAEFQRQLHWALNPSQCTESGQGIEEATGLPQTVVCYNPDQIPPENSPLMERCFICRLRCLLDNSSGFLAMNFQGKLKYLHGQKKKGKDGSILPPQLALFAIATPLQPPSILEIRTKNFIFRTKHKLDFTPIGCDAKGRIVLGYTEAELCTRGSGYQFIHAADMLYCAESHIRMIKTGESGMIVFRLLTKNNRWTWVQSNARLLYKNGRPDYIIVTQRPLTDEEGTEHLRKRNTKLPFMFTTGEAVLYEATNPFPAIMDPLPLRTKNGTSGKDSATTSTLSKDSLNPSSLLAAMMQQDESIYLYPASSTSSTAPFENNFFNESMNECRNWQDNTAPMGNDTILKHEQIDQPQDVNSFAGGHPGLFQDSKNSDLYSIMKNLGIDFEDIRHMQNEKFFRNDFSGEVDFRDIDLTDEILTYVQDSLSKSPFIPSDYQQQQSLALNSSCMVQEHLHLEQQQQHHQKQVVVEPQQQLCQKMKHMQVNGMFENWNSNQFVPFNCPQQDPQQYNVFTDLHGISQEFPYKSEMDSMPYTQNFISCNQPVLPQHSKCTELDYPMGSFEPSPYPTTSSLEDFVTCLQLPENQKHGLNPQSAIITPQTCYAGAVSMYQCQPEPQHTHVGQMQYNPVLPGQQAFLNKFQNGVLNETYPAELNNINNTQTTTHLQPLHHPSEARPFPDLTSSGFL
Test: DRE-Luciferase Reporter Assay (Alternate Method) (Example 1B)
Format: cell-based, murine or human
Conditions: cell line and AHR activating ligand not specified

| Compound | IC50 [nM] |
| --- | --- |
| CC(C)c1cnn2c(N[C@@H](C)Cc3c[nH]c4ccccc34)cc(-c3cncc(F)c3)nc12 [I-98a, 5-(5-Fluoro-3-pyridyl)-N-[(1S)-2-(1H-indol-3-yl)-1-methyl-ethyl]-3-isopropyl-pyrazolo[1,5-a]pyrimidin-7-amine] | > 1500 |
| Cc1cnn2c(NC[C@@H](O)c3c[nH]c4ccccc34)cc(-c3cncc(F)c3)nc12 [I-150b, (1S)-2-[[5-(5-Fluoro-3-pyridyl)-3-methyl-pyrazolo[1,5-a]pyrimidin-7-yl]amino]-1-(1H-indol-3-yl)ethanol] | 1000 to 1500 |
| CC(C)c1cnn2c(NC3CCc4[nH]c5ccccc5c4C3)nc(N(C)C)nc12 (stereo not drawn) [I-250] | > 1500 |
| CC(C)c1cnn2c(NC[C@@H](C)c3ccc(O)cc3)cc(-c3cncc(F)c3)nc12 [I-28a, 4-[(1S)-2-[[5-(5-fluoro-3-pyridyl)-3-isopropyl-pyrazolo[1,5-a]pyrimidin-7-yl]amino]-1-methyl-ethyl]phenol] | > 1500 |
| Cc1cnn2c(-c3cncc(F)c3)cc(NCCc3c[nH]c4ccccc34)nc12 [I-124, 7-(5-Fluoro-3-pyridyl)-N-[2-(1H-indol-3-yl)ethyl]-3-methyl-pyrazolo[1,5-a] pyrimidin-5-amine] | > 1500 |
| CN1CCN(C(=O)c2cnn3c(NC4CCc5[nH]c6ccccc6c5C4)nc(-c4cncc(F)c4)nc23)CC1 (stereo not drawn) [I-251] | > 1500 |
| Cc1cnn2c(NC(CO)Cc3c[nH]c4ccccc34)cc(-c3cncc(F)c3)nc12 (stereo not drawn) [I-178] | > 1500 |
| O=C(NC1CC1)c1cnn2c(NC3CCc4[nH]c5ccccc5c4C3)nc(-c3cncc(F)c3)nc12 (stereo not drawn) [I-285] | > 1500 |
| CC(C)c1cnn2c(NCCc3c[nH]c4cccnc34)cc(-c3cncc(F)c3)nc12 [I-110, 5-(5-Fluoro-3-pyridyl)-3-isopropyl-N-[2-(1H-pyrrolo[3,2-b]pyridin-3-yl)ethyl]pyrazolo[1,5-a]pyrimidin-7-amine] | 500 to 1000 |
| CNCc1cnn2c(NC3CCc4[nH]c5ccccc5c4C3)nc(-c3cncc(F)c3)nc12 (stereo not drawn) [I-277] | < 500 |
| O=C(c1cnn2c(N[C@@H]3CCc4[nH]c5ccccc5c4C3)cc(-c3cncc(F)c3)nc12)N1CCOCC1 [I-24, [5-(5-Fluoro-3-pyridyl)-7-[[(3R)-2,3,4,9-tetrahydro-1H-carbazol-3-yl]amino]pyrazolo[1,5-a]pyrimidin-3-yl]-morpholino-methanone] | > 1500 |
| O=C(O)c1cnn2c(NC[C@H](O)c3c[nH]c4ccccc34)cc(-c3cncc(F)c3)nc12 [I-158a] | > 1500 |
| CC(C)c1cnn2c(NC3CCc4[nH]c5ccccc5c4C3)nc(-c3ccc(=O)n(C)c3)nc12 (stereo not drawn) [I-272] | > 1500 |
| CC(C)c1cnn2c(N[C@@H]3CCc4nc(N)sc4C3)nc(-c3cncc(F)c3)nc12 [I-128b, (6R)—N6-[2-(5-Fluoro-3-pyridyl)-8-isopropyl-pyrazolo[1,5-a][1,3,5]triazin-4-yl]-4,5,6,7-tetrahydro-1,3-benzothiazole-2,6-diamine] | > 1500 |
| CN(C)c1cc(NCCc2c[nH]c3ccccc23)nc(-c2cncc(F)c2)n1 [I-63, 2-(5-Fluoro-3-pyridyl)-N6-[2-(1H-indol-3-yl)ethyl]-N4,N4-dimethyl-pyrimidine-4,6-diamine] | < 500 |
| Fc1cncc(-c2nc(N[C@@H]3CCc4[nH]c5ccccc5c4C3)n3ncc(-c4ccn[nH]4)c3n2)c1 [I-253, (3R)—N-[2-(5-Fluoro-3-pyridyl)-8-(1H-pyrazol-5-yl)pyrazolo[1,5-a][1,3,5]triazin-4-yl]-2,3,4,9-tetrahydro-1H-carbazol-3-amine] | < 500 |
| CC(C)Nc1cc(NCCc2c[nH]c3ccccc23)nc(-c2cncc(F)c2)n1 [I-20, 2-(5-Fluoro-3-pyridyl)-N6-[2-(1H-indol-3-yl)ethyl]-N4-isopropyl-pyrimidine-4,6-diamine] | < 500 |

The next lines start with the values.

| IC50 [nM] | Compound |
| --- | --- |
| > 1500 | Cc1cnn2c(NCCc3ccc(N)cc3)cc(-c3cncc(F)c3)nc12 [I-211, N-[2-(4-Aminophenyl)ethyl]-5-(5-fluoro-3-pyridyl)-3-methyl-pyrazolo[1,5-a]pyrimidin-7-amine] |
| > 1500 | CC(C)c1cnn2c(NC3CCc4[nH]c5ccccc5c4C3)nc(-c3ccc(C(F)(F)F)nc3)nc12 (stereo not drawn) [I-280] |
| 500 to 1000 | Cc1cnn2c(NCCc3c[nH]c4cccnc34)nc(-c3cncc(F)c3)nc12 [I-186, 2-(5-Fluoro-3-pyridyl)-8-methyl-N-[2-(1H-pyrrolo[3,2-b]pyridin-3-yl)ethyl]pyrazolo[1,5-a][1,3,5]triazin-4-amine] |
| > 1500 | Cc1cnn2c(NCCc3ccc(NS(C)(=O)=O)cc3)cc(-c3cncc(F)c3)nc12 [I-195, N-[4-[2-[[5-(5-Fluoro-3-pyridyl)-3-methyl-pyrazolo[1,5-a]pyrimidin-7-yl]amino]ethyl]phenyl]methanesulfonamide] |
| > 1500 | CC(C)c1cnn2c(N[C@@H]3CCc4[nH]c5ccccc5c4C3)nc(C3CCOCC3)nc12 [I-258, (3R)—N-(8-Isopropyl-2-tetrahydropyran-4-yl-pyrazolo[1,5-a][1,3,5]triazin-4-yl)-2,3,4,9-tetrahydro-1H-carbazol-3-amine] |
| < 500 | CC(C)n1cnc2c(NC3Cc4ccc(O)cc4C3)nc(-c3cncc(F)c3)nc21 (stereo not drawn) [I-48, 2-[[2-(5-fluoro-3-pyridyl)-9-isopropyl-purin-6-yl]amino]indan-5-ol] |
| < 500 | CC(C)n1cnc2c(NCCc3cn4ccccc4n3)nc(-c3cncc(F)c3)nc21 [I-22, 2-(5-Fluoro-3-pyridyl)-N-(2-imidazo[1,2-a]pyridin-2-ylethyl)-9-isopropyl-purin-6-amine] |
| < 500 | CC(C)Oc1nc(NCCc2c[nH]c3ccccc23)nc(-c2cncc(F)c2)n1 [I-136, 4-(5-Fluoro-3-pyridyl)-N-[2-(1H-indol-3-yl)ethyl]-6-isopropoxy-1,3,5-triazin-2-amine] |
| > 1500 | Fc1cncc(-c2nccc(NCCc3c[nH]c4ccccc34)n2)c1 [I-148] |
| > 1500 | CC(C)c1cnn2c(N[C@@H]3CCc4[nH]c5ccccc5c4C3)cc(-c3cncnc3)nc12 [I-229, (3R)—N-(3-Isopropyl-5-pyrimidin-5-yl-pyrazolo[1,5-a]pyrimidin-7-yl)-2,3,4,9-tetrahydro-1H-carbazol-3-amine] |
| 500 to 1000 | N#Cc1cncc(-c2cc(NCCc3c[nH]c4ccccc34)n3nccc3n2)c1 [I-43, 5-[7-[2-(1H-Indol-3-yl)ethylamino]pyrazolo[1,5-a]pyrimidin-5-yl]pyridine-3-carbonitrile] |
| > 1500 | O=C(O)c1cnn2c(NC3CCc4[nH]c5ccccc5c4C3)nc(-c3cncc(F)c3)nc12 (stereo not drawn) [I-287] |
| < 500 | CC(C)n1cnc2c(NCCc3c[nH]c4c(F)cc(F)cc34)nc(-c3cncc(F)c3)nc21 [I-23, N-[2-(5,7-Difluoro-1H-indol-3-yl)ethyl]-2-(5-fluoro-3-pyridyl)-9-isopropyl-purin-6-amine] |
